# Measured values as given in the supplement of paper PMC4862054.
# Legend:
# Conditions in all cases: incubation time: 72 h
# [1] = tested on: Hs578T; test: normalised viability (% of control), CellTiter-Blue; higher = more viable cells (about 100 = DMSO control)
# How it was run: (§1)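 Vehicle (100) and a positive kill control (0) anchored the normalisation of each plate, and Z'-factor was used for quality control. Breast cancer cell lines in 20 µl suspension were incubated 72 h over compound in 5 µl medium in 384-well plates, followed by CellTiter-Blue at 560/590 nm. The value is normalised viability at a single listed concentration of the series.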
# [2] = tested on: HCC1599; test: as above
# How it was run: as §1
# [3] = tested on: HCC1143; test: as above
# How it was run: as §1
# [4] = tested on: SK-BR-3; test: as above
# How it was run: as §1
# [5] = tested on: HCC1937; test: as above
# How it was run: as §1
# [6] = tested on: DU-4475; test: as above
# How it was run: as §1
# [7] = tested on: CAL-85-1; test: as above
# How it was run: as §1
# [8] = tested on: CAL-148; test: as above
# How it was run: as §1
# [9] = tested on: BT-549; test: as above
# How it was run: as §1
# [10] = tested on: MDA-MB-468; test: as above
# How it was run: as §1
# [11] = tested on: MDA-MB-231; test: as above
# How it was run: as §1
# [12] = tested on: HDQ-P1; test: as above
# How it was run: as §1
# [13] = tested on: MDA-MB-436; test: as above
# How it was run: as §1
# [14] = tested on: MDA-MB-453; test: as above
# How it was run: as §1
# [15] = tested on: MFM-223; test: as above
# How it was run: as §1
# [16] = tested on: Hs578T; test: drug sensitivity score (DSS), CellTiter-Glo (DSS (AUC-based score)); higher = stronger drug effect (viability inhibition or cytotoxicity); extreme values may be limits of the assay
# How it was run: (§2)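 Breast cancer cell lines were seeded in 20 µl suspension into 384-well plates already holding compound and incubated for 72 h. Each compound was tested at 5 concentrations in 10-fold steps across its own 10,000-fold range. Plates were normalised to 0.1 % DMSO and a positive kill control after CellTox Green and then CellTiter-Glo readings. The area under the fitted dose-response curve served as the basis for the drug sensitivity score.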
# [17] = tested on: HCC1599; test: as above
# How it was run: as §2
# [18] = tested on: HCC1143; test: as above
# How it was run: as §2
# [19] = tested on: SK-BR-3; test: as above
# How it was run: as §2
# [20] = tested on: HCC1937; test: as above
# How it was run: as §2
# [21] = tested on: DU-4475; test: as above
# How it was run: as §2
# [22] = tested on: BT-474; test: as above
# How it was run: as §2
# [23] = tested on: CAL-148; test: as above
# How it was run: as §2
# [24] = tested on: BT-549; test: as above
# How it was run: as §2
# [25] = tested on: MCF-10A; test: as above
# How it was run: as §2
# [26] = tested on: HDQ-P1; test: as above
# How it was run: as §2
# [27] = tested on: MDA-MB-436; test: as above
# How it was run: as §2
# [28] = tested on: CAL-51; test: as above
# How it was run: as §2
# [29] = tested on: MFM-223; test: as above
# How it was run: as §2
Compound,normalised viability ([1]; 100 nM) [%],normalised viability ([2]; 100 nM) [%],normalised viability ([3]; 100 nM) [%],normalised viability ([4]; 100 nM) [%],normalised viability ([5]; 100 nM) [%],normalised viability ([6]; 10 nM) [%],drug sensitivity score [16],drug sensitivity score [17],drug sensitivity score [18],drug sensitivity score [19],drug sensitivity score [20],drug sensitivity score [21],drug sensitivity score [22],drug sensitivity score [23],drug sensitivity score [24],drug sensitivity score [25],drug sensitivity score [26],drug sensitivity score [27],drug sensitivity score [28],drug sensitivity score [29],other results
CCC1=C[C@@H]2CN(C1)Cc1c([nH]c3ccccc13)[C@@](C(=O)OC)(c1cc3c(cc1OC)N(C)[C@H]1[C@@](O)(C(=O)OC)[C@H](OC(C)=O)[C@]4(CC)C=CCN5CC[C@]31[C@@H]54)C2 [Vinorelbine],28.7,90.4,54.4,15.7,28,107,19.8,18.8,15.6,37.5,8.42,6.47,12.3,17.1,20.7,10.2,7.16,21.9,17.1,16,normalised viability ([7]; 10 nM): 91.3%; normalised viability ([8]; 10 nM): 105%; normalised viability ([9]; 100 nM): 23.4%; normalised viability ([10]; 100 nM): 39.9%; normalised viability ([11]; 100 nM): 37.2%; normalised viability ([12]; 10 nM): 99.6%; normalised viability ([13]; 100 nM): 56.8%; normalised viability ([14]; 10 nM): 61.1%; normalised viability ([15]; 100 nM): 49.1%
Cn1c(CCCC(=O)O)nc2cc(N(CCCl)CCCl)ccc21 [Bendamustine],83.7,105,105,67.7,97.4,120,0,0,0,0,0,0,0,0,0,0,0,0,0,0,normalised viability ([7]; 10 nM): 102%; normalised viability ([8]; 10 nM): 108%; normalised viability ([9]; 100 nM): 109%; normalised viability ([10]; 100 nM): 96.3%; normalised viability ([11]; 100 nM): 93.2%; normalised viability ([12]; 10 nM): 112%; normalised viability ([13]; 100 nM): 83.4%; normalised viability ([14]; 10 nM): 112%; normalised viability ([15]; 100 nM): 102%
COc1cc2nccc(Oc3ccc(NC(=O)C4(C(=O)Nc5ccc(F)cc5)CC4)cc3)c2cc1OC [Cabozantinib],,,,,,,0,0,0,0,0,0,1.14,0,0,0,0,0,0,0,normalised viability ([1]; 10 nM): 91.1%; normalised viability ([2]; 10 nM): 82.3%; normalised viability ([3]; 10 nM): 81.3%; normalised viability ([4]; 10 nM): 76.2%; normalised viability ([5]; 10 nM): 95.4%; normalised viability ([6]; 1 nM): 89.4%; normalised viability ([7]; 1 nM): 91.8%; normalised viability ([8]; 1 nM): 98.6%; normalised viability ([9]; 10 nM): 104%; normalised viability ([10]; 10 nM): 123%; normalised viability ([11]; 10 nM): 100%; normalised viability ([12]; 1 nM): 99.5%; normalised viability ([13]; 10 nM): 108%; normalised viability ([14]; 1 nM): 98.5%; normalised viability ([15]; 10 nM): 93.5%
O=C1CCC(N2C(=O)c3ccccc3C2=O)C(=O)N1 (configuration not stated) [Thalidomide],91.9,108,112,111,90.2,91.3,0,0,0,0,0,0,0,0,0,0,0,0,0,0,normalised viability ([7]; 10 nM): 100%; normalised viability ([8]; 10 nM): 107%; normalised viability ([9]; 100 nM): 88%; normalised viability ([10]; 100 nM): 98.2%; normalised viability ([11]; 100 nM): 106%; normalised viability ([12]; 10 nM): 101%; normalised viability ([13]; 100 nM): 105%; normalised viability ([14]; 10 nM): 98.3%; normalised viability ([15]; 100 nM): 90.7%
C=C(c1ccc(C(=O)O)cc1)c1cc2c(cc1C)C(C)(C)CCC2(C)C [Bexarotene],70.7,88,115,82.6,93.5,110,0,9,0,2.44,0,0,1.51,0,0,0,0,0,0,0,normalised viability ([7]; 10 nM): 97%; normalised viability ([8]; 10 nM): 101%; normalised viability ([9]; 100 nM): 73.2%; normalised viability ([10]; 100 nM): 108%; normalised viability ([11]; 100 nM): 80.5%; normalised viability ([12]; 10 nM): 86.4%; normalised viability ([13]; 100 nM): 77.2%; normalised viability ([14]; 10 nM): 92%; normalised viability ([15]; 100 nM): 87.4%
CCC1(c2ccc(N)cc2)CCC(=O)NC1=O (configuration not stated) [Aminoglutethimide],80.6,104,113,105,91.3,104,0,0,0,0,0,0,0,0,0,0,0,0,0,0,normalised viability ([7]; 10 nM): 101%; normalised viability ([8]; 10 nM): 99.1%; normalised viability ([9]; 100 nM): 73.2%; normalised viability ([10]; 100 nM): 102%; normalised viability ([11]; 100 nM): 93.7%; normalised viability ([12]; 10 nM): 93.5%; normalised viability ([13]; 100 nM): 90.9%; normalised viability ([14]; 10 nM): 86.3%; normalised viability ([15]; 100 nM): 97%
Clc1ccc(Nc2nnc(Cc3ccncc3)c3ccccc23)cc1 [Vatalanib],100,109,78.9,66.5,112,97.9,0,0,0,0,0,0,0,0,0,0,0,0,0,0,normalised viability ([7]; 10 nM): 97.3%; normalised viability ([8]; 10 nM): 84.4%; normalised viability ([9]; 100 nM): 81.4%; normalised viability ([10]; 100 nM): 100%; normalised viability ([11]; 100 nM): 89.1%; normalised viability ([12]; 10 nM): 105%; normalised viability ([13]; 100 nM): 119%; normalised viability ([14]; 10 nM): 111%; normalised viability ([15]; 100 nM): 97.7%
CO[C@H]1/C=C\C=C(/C)C(=O)NC2=CC(=O)C(NCCN(C)C)=C(C[C@@H](C)C[C@H](OC)[C@H](O)[C@@H](C)/C=C(\C)[C@@H]1OC(N)=O)C2=O [Alvespimycin],,,,,,,10.6,4.92,12.1,14.5,12.6,17.6,11.6,13.3,16.1,14.9,14,13.1,13.4,13.1,normalised viability ([1]; 10 nM): 51.5%; normalised viability ([2]; 10 nM): 77%; normalised viability ([3]; 10 nM): 86.1%; normalised viability ([4]; 10 nM): 51.5%; normalised viability ([5]; 10 nM): 55.9%; normalised viability ([6]; 1 nM): 105%; normalised viability ([7]; 1 nM): 97.2%; normalised viability ([8]; 1 nM): 109%; normalised viability ([9]; 10 nM): 43.2%; normalised viability ([10]; 10 nM): 102%; normalised viability ([11]; 10 nM): 97.2%; normalised viability ([12]; 1 nM): 112%; normalised viability ([13]; 10 nM): 74.9%; normalised viability ([14]; 1 nM): 93.4%; normalised viability ([15]; 10 nM): 58.3%
